# Experimental data from patent US9969699B2, “Cancer cell growth inhibitor, anticancer agent, and method for screening same, as well as novel compound” (Microbial Chemistry Research Foundation, priority 2014, dated 2018).
# pIC50: −log10 of the molar value. Where two headings read alike, the source gives them in different places.
# What was measured:
# NIH3T3/EGFR vIII cells = experiment: 3D cell culture step (environment without adhesion scaffold), proliferation of NIH3T3/EGFR vIII cells; format: cell-based, mouse; conditions: for pIC50: Mus musculus, 72 h, NIH3T3/EGFR vIII cells, Ultra Low Attachment plate, 3 days, […]-GLO
# NIH3T3 cells = experiment: 2D cell culture step (environment with adhesion scaffold), proliferation of NIH3T3 cells; format: cell-based; conditions: Mus musculus, read-out: IC50 2D cell culture step
# Procedure: Note that, as a negative control, the NIH3T3 cells at 2×10^3 cells/100 were seeded to the same plate in a volume of 100 μL per well and cultured at 37° C. in the presence of 5% CO2 for 3 days without the addition of the test substance.
# Note that, Dulbecco's Modified Eagle Medium supplemented with 5% FBS was used for the culture.
# A cell proliferation inhibition rate in the 2D cell culture step was calculated according to (Expression 2) below. Cell proliferation inhibition rate(%)=(1−D/E)×100 (Expression 2)
# In the (Expression 2), D denotes the number of viable NIH3T3 cells when the test substance was added, and E denotes the number of viable NIH3T3 cells when the test substance was not added.
# [1] = Acute toxicity test, oral administration; format: in vivo, ICR mice; conditions: for Organ weight Heart / Organ weight Kidney (Left) / Organ weight Kidney (Right) / Organ weight Liver / Organ weight Lung / Organ weight Spleen / Organ weight Thymus: two weeks after
# Description: Two-weeks after the compounds represented by the Structural Formula (1) at the above concentrations were orally administered, the mice were dissected and organs thereof were weighed.
# Two-weeks after the compounds represented by the Structural Formula (8) at the above concentrations were orally administered, the mice were dissected and organs thereof were weighed.
# [2] = Acute toxicity test, intraperitoneal administration; format: in vivo, ICR mice; conditions: for Organ weight Heart / Organ weight Kidney (Left) / Organ weight Kidney (Right) / Organ weight Liver / Organ weight Lung / Organ weight Spleen / Organ weight Thymus: two weeks after
# Description: Two-weeks after the compounds represented by the Structural Formula (1) at the above concentrations were intraperitoneally administered, the mice were dissected and organs thereof were weighed.
# Two-weeks after the compounds represented by the Structural Formula (8) at the above concentrations were intraperitoneally administered, the mice were dissected and organs thereof were weighed.
# [3] = tested on: NIH3T3/EGFR vIII cell-transplanted tumor
# [4] = 72 h, NIH3T3 cells, TC-treated plate, 3 days, […]-GLO
# [5] = 0.098 mg/kg/0.2 mL, orally once
# [6] = 0.098 mg/kg/0.2 mL, intraperitoneally once
# [7] = 0.195 mg/kg/0.2 mL, intraperitoneally once
# [8] = 0.39 mg/kg/0.2 mL, intraperitoneally once
# [9] = 0.78 mg/kg/0.2 mL, intraperitoneally once
# [10] = 1.56 mg/kg/0.2 mL, intraperitoneally once
# [11] = 3.125 mg/kg/0.2 mL, intraperitoneally once
# [12] = 6.25 mg/kg/0.2 mL, intraperitoneally once
# [13] = 12.5 mg/kg/0.2 mL, intraperitoneally once
# [14] = 25 mg/kg/0.2 mL, intraperitoneally once
# [15] = 50 mg/kg/0.4 mL, intraperitoneally once
# [16] = 30 mg/kg intraperitoneally once a day, day 1 to day 17
smiles,measurement,setting,value
"CNc1ccc(Br)cc1-c1nc2ccccc2[nH]c1=O [Structural Formula (10), 3-[5-bromo-2-(methylamino)phenyl]-2(1H)-quinoxalinone]",pIC50,NIH3T3/EGFR vIII cells,< 5.00
same,pIC50,NIH3T3 cells; [4],< 5.00
"Cn1c(=O)c(-c2ccccc2N)nc2ccccc21 [Structural Formula (13), 3-(2-aminophenyl)-1-methyl-2(1H)-quinoxalinone]",pIC50,NIH3T3/EGFR vIII cells,< 5.00
same,pIC50,NIH3T3 cells; [4],< 5.00
"O=C(O)CCCC(=O)Nc1ccc(Br)cc1-c1nc2ccccc2[nH]c1=O [Structural Formula (5), 4-{N-[4-bromo-2-(3-oxo(4-hydroquinoxalin-2-yl))phenyl]carbamoyl}butanoic acid]",pIC50,NIH3T3/EGFR vIII cells,6.40
same,pIC50,NIH3T3 cells; [4],< 5.00
"C#Cc1cccc(Nc2ncnc3cc(OCCOC)c(OCCOC)cc23)c1 [Erlotinib, reference compound]",pIC50,"NIH3T3 cells; NIH3T3, 72 h",4.30
"CC(=O)Nc1ccc(Br)cc1-c1nc2ccccc2[nH]c1=O [Structural Formula (3), N-[4-bromo-2-(3-oxo(4-hydroquinoxalin-2-yl))phenyl]acetamide]",pIC50,NIH3T3/EGFR vIII cells,6.30
same,pIC50,NIH3T3 cells; [4],< 5.00
"O=c1[nH]c2ccccc2nc1-c1ccccc1NCc1ccc(F)cc1 [Structural Formula (12), 3-{2-[(4-fluorobenzyl)amino]phenyl}-2(1H)-quinoxalinone]",pIC50,NIH3T3/EGFR vIII cells,< 5.00
same,pIC50,NIH3T3 cells; [4],< 5.00
"Nc1ccc(I)cc1-c1nc2ccccc2[nH]c1=O [Structural Formula (8), 3-(2-Amino-5-iodophenyl)-2(1H)-quinoxalinone]",Organ weight Heart,[1]; [5],124.0 mg
same,Organ weight Kidney (Left),[1]; [5],165.0 mg
same,Organ weight Kidney (Right),[1]; [5],181.0 mg
same,Organ weight Liver,[1]; [5],1322.0 mg
same,Organ weight Lung,[1]; [5],182.0 mg
same,Organ weight Spleen,[1]; [5],125.0 mg
same,Organ weight Heart,"[1]; 6.25 mg/kg/0.2 mL, orally once",119.0 mg
same,Organ weight Lung,"[1]; 6.25 mg/kg/0.2 mL, orally once",171.0 mg
same,Organ weight Thymus,"[1]; 6.25 mg/kg/0.2 mL, orally once",74.0 mg
same,Organ weight Heart,"[1]; 12.5 mg/kg/0.2 mL, orally once",111.0 mg
same,Organ weight Kidney (Left),"[1]; 12.5 mg/kg/0.2 mL, orally once",150.0 mg
same,Organ weight Kidney (Right),"[1]; 12.5 mg/kg/0.2 mL, orally once",167.0 mg
same,Organ weight Liver,"[1]; 12.5 mg/kg/0.2 mL, orally once",1375.0 mg
same,Organ weight Lung,"[1]; 12.5 mg/kg/0.2 mL, orally once",159.0 mg
same,Organ weight Spleen,"[1]; 12.5 mg/kg/0.2 mL, orally once",168.0 mg
same,Organ weight Thymus,"[1]; 12.5 mg/kg/0.2 mL, orally once",90.0 mg
same,Organ weight Heart,"[1]; 25 mg/kg/0.2 mL, orally once",110.0 mg
same,Organ weight Kidney (Left),"[1]; 25 mg/kg/0.2 mL, orally once",140.0 mg
same,Organ weight Kidney (Right),"[1]; 25 mg/kg/0.2 mL, orally once",152.0 mg
same,Organ weight Liver,"[1]; 25 mg/kg/0.2 mL, orally once",1184.0 mg
same,Organ weight Lung,"[1]; 25 mg/kg/0.2 mL, orally once",163.0 mg
same,Organ weight Spleen,"[1]; 25 mg/kg/0.2 mL, orally once",92.0 mg
same,Organ weight Thymus,"[1]; 25 mg/kg/0.2 mL, orally once",39.0 mg
same,Organ weight Heart,"[1]; 50 mg/kg/0.4 mL, orally once",116.0 mg
same,Organ weight Kidney (Left),"[1]; 50 mg/kg/0.4 mL, orally once",158.0 mg
same,Organ weight Kidney (Right),"[1]; 50 mg/kg/0.4 mL, orally once",175.0 mg
same,Organ weight Liver,"[1]; 50 mg/kg/0.4 mL, orally once",1331.0 mg
same,Organ weight Lung,"[1]; 50 mg/kg/0.4 mL, orally once",176.0 mg
same,Organ weight Spleen,"[1]; 50 mg/kg/0.4 mL, orally once",133.0 mg
same,Organ weight Thymus,"[1]; 50 mg/kg/0.4 mL, orally once",87.0 mg
same,autopsy findings,"[1]; mouse, in vivo, po",slightly lighter livers and slightly heavier spleens were found at some doses
same,abnormalities,"[1]; orally once, any doses (0.098 to 50 mg/kg)",no abnormalities were found at any doses
same,"cell proliferation inhibiting activity compared with AG1478, Gefitinib and Erlotinib",NIH3T3/EGFR vIII cells; 3D cell culture step,more significant cell proliferation inhibiting activity
same,pIC50,NIH3T3/EGFR vIII cells,8.00
same,Organ weight Heart,[2]; [6],118.0 mg
same,Organ weight Kidney (Left),[2]; [6],160.0 mg
same,Organ weight Kidney (Right),[2]; [6],172.0 mg
same,Organ weight Liver,[2]; [6],1476.0 mg
same,Organ weight Lung,[2]; [6],165.0 mg
same,Organ weight Spleen,[2]; [6],176.0 mg
same,Organ weight Thymus,[2]; [6],59.0 mg
same,Organ weight Heart,[2]; [7],106.0 mg
same,Organ weight Kidney (Left),[2]; [7],174.0 mg
same,Organ weight Kidney (Right),[2]; [7],181.0 mg
same,Organ weight Liver,[2]; [7],1442.0 mg
same,Organ weight Lung,[2]; [7],166.0 mg
same,Organ weight Spleen,[2]; [7],98.0 mg
same,Organ weight Thymus,[2]; [7],66.0 mg
same,Organ weight Heart,[2]; [8],108.0 mg
same,Organ weight Kidney (Left),[2]; [8],146.0 mg
same,Organ weight Kidney (Right),[2]; [8],158.0 mg
same,Organ weight Liver,[2]; [8],1234.0 mg
same,Organ weight Lung,[2]; [8],151.0 mg
same,Organ weight Spleen,[2]; [8],69.0 mg
same,Organ weight Thymus,[2]; [8],47.0 mg
same,Organ weight Heart,[2]; [9],110.0 mg
same,Organ weight Kidney (Left),[2]; [9],177.0 mg
same,Organ weight Kidney (Right),[2]; [9],181.0 mg
same,Organ weight Liver,[2]; [9],1324.0 mg
same,Organ weight Lung,[2]; [9],163.0 mg
same,Organ weight Spleen,[2]; [9],127.0 mg
same,Organ weight Thymus,[2]; [9],60.0 mg
same,Organ weight Heart,[2]; [10],125.0 mg
same,Organ weight Kidney (Left),[2]; [10],161.0 mg
same,Organ weight Kidney (Right),[2]; [10],179.0 mg
same,Organ weight Liver,[2]; [10],1738.0 mg
same,Organ weight Lung,[2]; [10],183.0 mg
same,Organ weight Spleen,[2]; [10],158.0 mg
same,Organ weight Thymus,[2]; [10],94.0 mg
same,Organ weight Heart,[2]; [11],120.0 mg
same,Organ weight Kidney (Left),[2]; [11],172.0 mg
same,Organ weight Kidney (Right),[2]; [11],175.0 mg
same,Organ weight Liver,[2]; [11],1710.0 mg
same,Organ weight Lung,[2]; [11],165.0 mg
same,Organ weight Spleen,[2]; [11],132.0 mg
same,Organ weight Thymus,[2]; [11],60.0 mg
same,Organ weight Heart,[2]; [12],120.0 mg
same,Organ weight Kidney (Left),[2]; [12],158.0 mg
same,Organ weight Kidney (Right),[2]; [12],178.0 mg
same,Organ weight Liver,[2]; [12],1641.0 mg
same,Organ weight Lung,[2]; [12],168.0 mg
same,Organ weight Spleen,[2]; [12],124.0 mg
same,Organ weight Thymus,[2]; [12],53.0 mg
same,Organ weight Heart,[2]; [13],108.0 mg
same,Organ weight Kidney (Left),[2]; [13],150.0 mg
same,Organ weight Kidney (Right),[2]; [13],149.0 mg
same,Organ weight Liver,[2]; [13],1356.0 mg
same,Organ weight Lung,[2]; [13],165.0 mg
same,Organ weight Spleen,[2]; [13],111.0 mg
same,Organ weight Thymus,[2]; [13],78.0 mg
same,Organ weight Heart,[2]; [14],108.0 mg
same,Organ weight Kidney (Left),[2]; [14],149.0 mg
same,Organ weight Kidney (Right),[2]; [14],155.0 mg
same,Organ weight Liver,[2]; [14],1564.0 mg
same,Organ weight Lung,[2]; [14],155.0 mg
same,Organ weight Spleen,[2]; [14],138.0 mg
same,Organ weight Thymus,[2]; [14],103.0 mg
same,Organ weight Heart,[2]; [15],120.0 mg
same,Organ weight Kidney (Left),[2]; [15],150.0 mg
same,Organ weight Kidney (Right),[2]; [15],152.0 mg
same,Organ weight Liver,[2]; [15],1551.0 mg
same,Organ weight Lung,[2]; [15],166.0 mg
same,Organ weight Spleen,[2]; [15],98.0 mg
same,Organ weight Thymus,[2]; [15],66.0 mg
same,abnormalities,"[2]; intraperitoneally once, any doses (0.098 to 50 mg/kg)",no abnormalities were found at any doses
same,autopsy findings,"[2]; mouse, in vivo, ip","slightly lighter livers, and slightly lighter or heavier spleens were found at some doses"
same,pIC50,NIH3T3 cells; [4],< 5.00
same,tumor weight versus negative control group,"[3]; 30 mg/kg intraperitoneally once a day, 17 days after transplantation, t<0.05",significantly different
same,mouse body weight (weight loss),[3]; [16],weight loss was not observed
same,toxicity,[3]; [16],no toxicity
same,tumor proliferation inhibiting activity,[3]; [16],exhibited the tumor proliferation inhibiting activity
same,tumor proliferation inhibiting activity compared with Gefitinib,[3]; 30 mg/kg intraperitoneally vs Gefitinib 100 mg/kg orally,comparable
